# Results reported in the supplement of paper PMC11821682.
# How the values were obtained:
# HL-60 = assay: Cell Health Index (toxicity pseudo-probability over dose series) (index 0-1); higher = more cytotoxic / cell stress;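 further: HL-60 cells exposed 4 h at 37 °C to ten threefold dilutions spanning 5 nM to 100 µM, multiparametric flow cytometry features scored by machine-learning classification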
# Danio rerio embryo = assay: BMC10 any morphological effect or mortality at 120 hpf; higher = less toxic
Structure (SMILES),Cell Health Index (HL-60),BMC10 any morphological effect or mortality (Danio rerio embryo)
C[C@H]1CC[C@@]2(O)C(C)(C)[C@@H]3CC[C@@]2(C)[C@H]1C3 [Patchouli alcohol],0.202,> 100 µM
C[C@@]1(F)[C@H](O)[C@@H](CO)O[C@H]1n1ccc(=O)[nH]c1=O [PSI-6206],0.116,> 100 µM
O=C(O)CCCCCCCCCCCCCCCCCCCO [20-hydroxy Arachidic acid],0.215,> 100 µM
Cc1cn([C@H]2C[C@H](N=[N+]=[N-])[C@@H](CO)O2)c(=O)[nH]c1=O [Zidovudine],0.17,> 100 µM
O=c1[nH]c(=O)n([C@@H]2O[C@H](CO)[C@@H](O)[C@@H]2F)cc1I [Fialuridine],0.209,> 100 µM
COC(=O)CC[C@H](NC(=O)[C@H](C)NC(=O)OCc1ccccc1)C(=O)N[C@H](C(=O)N[C@@H](CC(=O)OC)C(=O)CF)C(C)C [Z-AEVD-FMK],0.179,> 100 µM
Nc1nc(=O)n([C@@H]2CS[C@H](CO)O2)cc1F [Emtricitabine],0.158,> 100 µM
COC(=O)C1=CO[C@@H](O[C@@H]2O[C@H](CO)[C@@H](O)[C@H](O)[C@H]2O)[C@@H]2C(CO)=CC[C@H]12 [Geniposide],0.251,> 100 µM
CC(C)[C@H](N)C(=O)OCCOCn1cnc2c(=O)nc(N)[nH]c21.Cl [Valacyclovir],0.145,> 100 µM
O=C(O)/C(S)=C/c1ccc(I)cc1,0.32,> 100 µM
O=c1[nH]c(=O)n([C@H]2C[C@H](O)[C@@H](CO)O2)cc1/C=C/Br [Brivudine],0.157,> 100 µM
CC(C)(C)C(=O)OCOP(=O)(COCCn1cnc2c(N)ncnc21)OCOC(=O)C(C)(C)C [Adefovir dipivoxil],0.258,> 100 µM
Nc1nc(=O)c2ncn(CCC(CO)CO)c2[nH]1 [Penciclovir],0.126,> 100 µM
O=C(c1ccccc1)c1ccc2nc(NC(=O)c3csc(C4CCN(c5ncnc6ccsc56)CC4)n3)[nH]c2c1,0.507,> 100 µM
CCCCCCCCCN1C[C@H](O)[C@@H](O)[C@H](O)[C@H]1CO [N-Nonyldeoxynojirimycin],0.254,> 100 µM
Nc1ncnc2c1ncn2[C@@H]1O[C@H](CO)[C@@H](O)[C@@H]1O [Vidarabine],0.234,> 100 µM
Cc1ccnc2c1NC(=O)c1cccnc1N2C1CC1 [Nevirapine],0.185,> 100 µM
Cl.NCC(=O)CCC(=O)O [5-Aminolevulinic acid],0.194,> 100 µM
O=C(O)C[C@H](NC(=O)OCc1ccccc1)C(=O)COC(=O)c1c(Cl)cccc1Cl [Z-Asp-CH2-DCB],0.212,> 100 µM
Nc1nc(=O)n([C@@H]2CS(=O)[C@H](CO)O2)cc1F (some centres undefined) [Emtricitabine S-oxide],0.188,> 100 µM
CNc1ncnc2c1ncn2[C@@H]1O[C@H](CO)[C@@H](O)[C@H]1O [N6-Methyladenosine],0.307,> 100 µM
CC(C)C[C@H](NC(=O)[C@@H](NC(=O)N[C@@H](Cc1ccccc1)C(=O)O)C1CCNC(=N)N1)C(=O)N[C@H](C=O)Cc1ccccc1 (some centres undefined) [Chymostatin],0.19,> 100 µM
O=C1CCC[C@@H]2[C@H]3CCC[N+]4([O-])CCC[C@@H](CN12)[C@@H]34 (some centres undefined) [Oxymatrine],0.187,> 100 µM
CC(=O)N[C@@H]([C@@H](O)[C@H](O)[C@H](O)CO)[C@@H](O)CC(=O)C(=O)O [Aceneuramic acid],0.172,> 100 µM
C=C[C@H]1C[C@@]1(NC(=O)[C@@H]1C[C@@H]2CN1C(=O)[C@H](C(C)(C)C)NC(=O)O[C@@H]1C[C@H]1CCCCCc1nc3ccc(OC)cc3nc1O2)C(=O)NS(=O)(=O)C1CC1 [Grazoprevir],0.532,> 100 µM
C[C@H](Cn1cnc2c(N)ncnc21)OCP(=O)(O)O [Tenofovir],0.229,> 100 µM

Structure (SMILES),Cell Health Index (HL-60),BMC10 any morphological effect or mortality (Danio rerio embryo)
CCC(CC)COC(=O)[C@H](C)N[P@](=O)(OC[C@H]1O[C@@](C#N)(c2ccc3c(N)ncnn23)[C@H](O)[C@@H]1O)Oc1ccccc1 [Remdesivir],0.275,> 100 µM
Cn1c(Cn2ccc(C(F)(F)F)c(Oc3cc(Cl)cc(C#N)c3)c2=O)n[nH]c1=O [Doravirine],0.198,> 100 µM
CS(=O)(=O)O.Cc1c(O)cccc1C(=O)N[C@@H](CSc1ccccc1)[C@H](O)CN1C[C@H]2CCCC[C@H]2C[C@H]1C(=O)NC(C)(C)C [Nelfinavir],0.453,> 100 µM
O=c1c(O)cc([C@H]2Oc3cc(O)cc(O)c3C[C@H]2O)cc2c([C@H]3Oc4cc(O)cc(O)c4C[C@H]3O)cc(O)c(O)c12 [Theaflavin],0.752,> 100 µM
CCNCc1nc2c(N)nc3ccccc3c2n1CC(C)(C)O [Gardiquimod],0.172,> 100 µM
O=c1c2cc(O)c(O)cc2oc2cc(O)c([C@@H]3O[C@H](CO)[C@@H](O)[C@H](O)[C@H]3O)c(O)c12 [Mangiferin],0.26,> 100 µM
C[n+]1cccc(C(=O)O)c1.[Cl-] [Trigonelline],0.15,> 100 µM
COc1ccc(C2CNC(=O)C2)cc1OC1CCCC1 (centres undefined) [Rolipram],0.152,> 100 µM
NC(=O)NO [Hydroxyurea],0.161,> 100 µM
COc1c(O)cc2c(c1O)[C@@H]1O[C@H](CO)[C@@H](O)[C@H](O)[C@H]1OC2=O [Bergenin],0.214,> 100 µM
O=C(/C=C/c1ccc(O)c(O)c1)O[C@@H](C(=O)O)[C@@H](OC(=O)/C=C/c1ccc(O)c(O)c1)C(=O)O [Chicoric acid],0.468,> 100 µM
O=C1/C(=C/c2ccc(O)c(O)c2)COc2cc(O)ccc21 [Sappanone A],0.614,> 100 µM
CCCCc1nc(Cl)c(CO)n1Cc1ccc(-c2ccccc2-c2nnn[n-]2)cc1.[K+] [Losartan],0.209,> 100 µM
CC(C)Cc1ncc(Cc2ccccc2)[nH]c1=O [Pheleuin],0.182,> 100 µM
CC1(C)[C@@H]2CC[C@@]1(C)[C@H](O)C2 [Isoborneol],0.173,> 100 µM
O=c1c(O[C@@H]2O[C@H](CO)[C@@H](O)[C@H](O)[C@H]2O)c(-c2ccc(O)c(O)c2)oc2cc(O)cc(O)c12 [Isoquercetin],0.31,> 100 µM
O=C(/C=C/c1ccc(O)c(O)c1)O[C@@H]1C[C@@](O)(C(=O)O)C[C@@H](O)[C@@H]1O [5-Caffeoylquinic acid],0.295,> 100 µM
CC(=O)SC[C@H](NC(=O)CC[C@H](N)C(=O)O)C(=O)NCC(=O)O [S-acetyl-L-Glutathione],0.168,> 100 µM
COc1cc2c(=O)c(-c3ccc(O)cc3)coc2cc1O[C@@H]1O[C@H](CO)[C@@H](O)[C@H](O)[C@H]1O [Glycitin],0.158,> 100 µM
"O=c1cc(-c2ccccc2)oc2c(O)c(O)ccc12 [7,8-Dihydroxyflavone]",0.507,> 100 µM
Cc1cn([C@@H]2C[C@@H](O)[C@H](CO)O2)c(=O)[nH]c1=O [Telbivudine],0.153,> 100 µM
CC(=O)O[C@H]1CC(=O)OC(C)(C)[C@@H]2CC(=O)[C@]3(C)[C@H](CC[C@@]4(C)[C@H](c5ccoc5)OC(=O)[C@H]5O[C@]543)[C@@]12C [Nomilin],0.278,> 100 µM
O=CC1OC(=O)c2cc(O)c(O)c(O)c2-c2c(cc(O)c(O)c2O)C(=O)OC1C1OC(=O)c2cc(O)c(O)c(O)c2-c2c(O)c(O)c3oc(=O)c4c(c(O)c(O)c5oc(=O)c2c3c54)-c2c(cc(O)c(O)c2O)C(=O)OCC1O (centres undefined) [Punicalagin],0.837,> 100 µM
CCCN(CCC)S(=O)(=O)c1ccc(C(=O)O)cc1 [Probenecid],0.196,> 100 µM
CC(=O)N(O)CCCCCNC(=O)CCC(=O)N(O)CCCCCNC(=O)CCC(=O)N(O)CCCCCN.CS(=O)(=O)O [Deferoxamine],0.23,> 100 µM
O[C@H]1[C@@]2([H])[C@](CC[C@]2([H])[C@@](CC/C=C(C)/C)(C)O[C@@H]3O[C@H](CO[C@H]4[C@H](O)[C@@H](O)[C@@H](O)CO4)[C@@H](O)[C@H](O)[C@H]3O)(C)[C@]5(C)CC[C@]6([H])[C@@](CC[C@H](O[C@]7([H])O[C@H](CO)[C@@H](O)[C@H](O)[C@H]7O[C@@]8([H])[C@H](O)[C@@H](O)[C@H](O)[C@@H](CO)O8)C6(C)C)(C)[C@@]5([H])C1 [Ginsenoside Rb2],0.173,> 100 µM
